# Measurements taken from patent US20260022142A1, “MACROCYCLIC IMMUNOMODULATORS” (Bristol-Myers Squibb Company, priority 2022, published 2026).
# Bridge positions count the residues as written; N and C are the ends. Square brackets hold non-standard residues; d marks the D form. Peptide text beside a SMILES is read from it. * marks the point of attachment. ξ: configuration not given here. Bip = N[C@@H](Cc1ccc(-c2ccccc2)cc1)C(=O)O; Phe(3-Me) = Cc1cccc(C[C@H](N)C(=O)O)c1; Cha = N[C@@H](CC1CCCCC1)C(=O)O; Cit = NC(=O)NCCC[C@H](N)C(=O)O; dNMeN = CN[C@H](CC(N)=O)C(=O)O; Thr(3ξ) = CC(O)[C@H](N)C(=O)O; Dap(Me) = CNC[C@H](N)C(=O)O; Carboxymethyl = O=C(O)C*; Orn = NCCC[C@H](N)C(=O)O; Aun = NCCCCCCCCCCC(=O)O; Dab = NCC[C@H](N)C(=O)O; ξDab = NCCC(N)C(=O)O
# Biological target: T1, PD-1/PD-L1 interaction (PE-labeled human PD-L1-Ig binding to Jurkat cell line over-expressing human PD-1) (Homo sapiens, UniProt Q15116)
# T1 construct: expressed in transfected cells; host or cells: Jurkat
# Experiment: Jurkat-PD-1 Cell Binding High-Content Screening Assay (CBA)
# Assay type: cell-based
# Settings: Jurkat cell line over-expressing human PD-1; PE-labeled PD-L1-Ig 20 nM final; read-out: Jurkat hPD1-PDL1 IC50
# Procedure, shortened: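 Jurkat-hPD-1 cells, DMEM/10% FCS; cpd 2 h 37° C; PE-PD-L1-Ig 20 nM final, 1 h; 4% PFA fix + Hoechst 33342, 3× dPBS wash; high-content imaging read-out.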
# T1 sequence (Q15116 25-288): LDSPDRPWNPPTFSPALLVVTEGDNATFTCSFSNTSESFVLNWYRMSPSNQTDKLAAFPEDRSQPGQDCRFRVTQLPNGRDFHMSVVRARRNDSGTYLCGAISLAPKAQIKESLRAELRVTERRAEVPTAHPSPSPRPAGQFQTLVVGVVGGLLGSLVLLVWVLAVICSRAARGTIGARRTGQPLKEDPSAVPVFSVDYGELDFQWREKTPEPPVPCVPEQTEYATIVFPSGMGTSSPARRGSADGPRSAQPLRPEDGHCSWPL
row,SMILES,IC50
1,CC(=O)NCCCC[C@@H]1NC(=O)[C@H](C(C)C)NC(=O)[C@H](CC2CCCCC2)NC(=O)[C@H](CCN)NC(=O)[C@@H](CC(C)C)NC(=O)[C@H](CCCN)NC(=O)[C@H](C(C)C)NC(=O)[C@H](Cc2ccc(-c3ccccc3)cc2)NC(=O)[C@H](C(C)C)NC(=O)[C@H](Cc2cccc(C)c2)NC(=O)[C@H](CC(=O)O)NC(=O)[C@H](Cc2ccc(OCC(=O)O)cc2)NC(=O)[C@H](C(C)O)NC(=O)CSC[C@@H](C(=O)N(C)[C@H](CC(N)=O)C(=O)NCCCCCCCCCCC(=O)O)NC1=O (stereo partly drawn) [Compound 3445] ({CH2CO}-[Thr(3ξ)]Y(Carboxymethyl)D[Phe(3-Me)]V[Bip]V[Orn][dL][Dab][Cha]VK(Ac)C[dNMeN][Aun]-OH; thioether N-14),0.16 µM
2,CC(C)C[C@H]1NC(=O)[C@H](CCCN)NC(=O)[C@H](CCCNC(N)=O)NC(=O)[C@H](Cc2ccc(-c3ccccc3)cc2)NC(=O)[C@H](C(C)C)NC(=O)[C@H](Cc2c[nH]c3ccccc23)NC(=O)[C@H](CC(=O)O)NC(=O)[C@H](Cc2ccc(OCC(=O)O)cc2)NC(=O)[C@H](C(C)O)NC(=O)CSC[C@@H](C(=O)N[C@H](CCC(N)=O)C(=O)NCCCCCCCCCCC(=O)O)NC(=O)[C@H](C(C)O)NC(=O)[C@H](C(C)C)NC(=O)[C@H](CC2CCCCC2)NC(=O)[C@H](CCN)NC1=O (stereo partly drawn) [Compound 3446] ({CH2CO}-[Thr(3ξ)]Y(Carboxymethyl)DWV[Bip][Cit][Orn][dL][Dab][Cha]V[Thr(3ξ)]C[dQ][Aun]-OH; thioether N-14),0.0652 µM
3,CC(=O)NCCCC[C@@H]1NC(=O)[C@H](C(C)C)NC(=O)[C@H](CC2CCCCC2)NC(=O)[C@H](CCN)NC(=O)[C@@H](CC(C)C)NC(=O)[C@H](CCCN)NC(=O)[C@H](C(C)C)NC(=O)[C@H](Cc2ccc(-c3ccccc3)cc2)NC(=O)[C@H](C(C)C)NC(=O)[C@H](Cc2cccc(C)c2)NC(=O)[C@H](CC(=O)O)NC(=O)[C@H](Cc2ccc(OCC(=O)O)cc2)NC(=O)[C@H](C(C)O)NC(=O)CSC[C@@H](C(=O)N[C@H](CCC(N)=O)C(=O)NCCCCCCCCCCC(=O)O)NC1=O (stereo partly drawn) [Compound 3447] ({CH2CO}-[Thr(3ξ)]Y(Carboxymethyl)D[Phe(3-Me)]V[Bip]V[Orn][dL][Dab][Cha]VK(Ac)C[dQ][Aun]-OH; thioether N-14),0.0105 µM
4,Cc1cccc(C[C@@H]2NC(=O)[C@H](CC(=O)O)NC(=O)[C@H](Cc3ccc(OCC(=O)O)cc3)NC(=O)[C@H](C(C)O)NC(=O)CSC[C@@H](C(=O)NC(CCN)C(=O)NCCCCCCCCCCC(=O)O)NC(=O)[C@H](C(C)O)NC(=O)[C@H](C(C)C)NC(=O)[C@H](CC3CCCCC3)NC(=O)[C@H](CCN)NC(=O)[C@@H](CC(C)C)NC(=O)[C@H](CCCN)NC(=O)[C@H](CCC(=O)O)NC(=O)[C@H](Cc3ccc(-c4ccccc4)cc3)NC(=O)[C@H](CCC(=O)O)NC2=O)c1 (stereo partly drawn) [Compound 3448] ({CH2CO}-[Thr(3ξ)]Y(Carboxymethyl)D[Phe(3-Me)]E[Bip]E[Orn][dL][Dab][Cha]V[Thr(3ξ)]C[ξDab][Aun]-OH; thioether N-14),0.091 µM
5,Cc1cccc(C[C@@H]2NC(=O)[C@H](CC(=O)O)NC(=O)[C@H](Cc3ccc(OCC(=O)O)cc3)NC(=O)[C@H](CCCNC(=N)N)NC(=O)CSC[C@@H](C(=O)N[C@@H](CCN)C(=O)NCCCCCCCCCCC(=O)O)NC(=O)[C@H](C(C)O)NC(=O)[C@H](C(C)C)NC(=O)[C@H](CC3CCCCC3)NC(=O)[C@H](CCN)NC(=O)[C@@H](CC(C)C)NC(=O)[C@H](CCCNC(N)=O)NC(=O)[C@H](Cc3ccc(OCC(=O)O)cc3)NC(=O)[C@H](Cc3ccc(-c4ccccc4)cc3)NC(=O)[C@H](C(C)C)NC2=O)c1 (stereo partly drawn) [Compound 3450] ({CH2CO}-RY(Carboxymethyl)D[Phe(3-Me)]V[Bip]Y(Carboxymethyl)[Cit][dL][Dab][Cha]V[Thr(3ξ)]C[Dab][Aun]-OH; thioether N-14),0.0183 µM
6,Cc1cccc(C[C@@H]2NC(=O)[C@H](CC(=O)O)NC(=O)[C@H](Cc3ccc(OCC(=O)O)cc3)NC(=O)[C@H](C(C)O)NC(=O)CSC[C@@H](C(=O)N[C@@H](CCN)C(=O)NCCCCCCCCCCC(=O)O)NC(=O)[C@H](C(C)O)NC(=O)[C@H](C(C)C)NC(=O)[C@H](CC3CCCCC3)NC(=O)[C@H](CCN)NC(=O)[C@@H](CC(C)C)NC(=O)[C@H](CCCNC(N)=O)NC(=O)[C@H](Cc3ccc(OCC(=O)O)cc3)NC(=O)[C@H](Cc3ccc(-c4ccccc4)cc3)NC(=O)[C@H](C(C)C)NC2=O)c1 (stereo partly drawn) [Compound 3451] ({CH2CO}-[Thr(3ξ)]Y(Carboxymethyl)D[Phe(3-Me)]V[Bip]Y(Carboxymethyl)[Cit][dL][Dab][Cha]V[Thr(3ξ)]C[Dab][Aun]-OH; thioether N-14),0.0184 µM
7,Cc1cccc(C[C@@H]2NC(=O)[C@H](CC(=O)O)NC(=O)[C@H](Cc3ccc(OCC(=O)O)cc3)NC(=O)[C@H](CCCNC(=N)N)NC(=O)CSC[C@@H](C(=O)N[C@H](CC(N)=O)C(=O)NCCCCCCCCCCC(=O)O)NC(=O)[C@H](C(C)O)NC(=O)[C@H](C(C)C)NC(=O)[C@H](CC3CCCCC3)NC(=O)[C@H](CCN)NC(=O)[C@@H](CC(C)C)NC(=O)[C@H](CCCN)NC(=O)[C@H](Cc3ccc(O)cc3)NC(=O)[C@H](Cc3ccc(-c4ccccc4)cc3)NC(=O)[C@H](C(C)C)NC2=O)c1 (stereo partly drawn) [Compound 3452] ({CH2CO}-RY(Carboxymethyl)D[Phe(3-Me)]V[Bip]Y[Orn][dL][Dab][Cha]V[Thr(3ξ)]C[dN][Aun]-OH; thioether N-14),0.0258 µM
8,Cc1cccc(C[C@@H]2NC(=O)[C@H](CC(=O)O)NC(=O)[C@H](Cc3ccc(OCC(=O)O)cc3)NC(=O)[C@H](Cc3c[nH]cn3)NC(=O)CSC[C@@H](C(=O)N[C@@H](CCN)C(=O)NCCCCCCCCCCC(=O)O)NC(=O)[C@H](C(C)O)NC(=O)[C@H](C(C)C)NC(=O)[C@H](CC3CCCCC3)NC(=O)[C@H](CCN)NC(=O)[C@@H](CC(C)C)NC(=O)[C@H](CCCN)NC(=O)[C@H](CCCNC(N)=O)NC(=O)[C@H](Cc3ccc(-c4ccccc4)cc3)NC(=O)[C@H](C(C)C)NC2=O)c1 (stereo partly drawn) [Compound 3453] ({CH2CO}-HY(Carboxymethyl)D[Phe(3-Me)]V[Bip][Cit][Orn][dL][Dab][Cha]V[Thr(3ξ)]C[Dab][Aun]-OH; thioether N-14),0.0199 µM
9,CNC[C@@H]1NC(=O)CSC[C@@H](C(=O)N[C@@H](CCN)C(=O)NCCCCCCCCCCC(=O)O)NC(=O)[C@H](C(C)O)NC(=O)[C@H](C(C)C)NC(=O)[C@H](CC2CCCCC2)NC(=O)[C@H](CCN)NC(=O)[C@@H](CC(C)C)NC(=O)[C@H](CCCN)NC(=O)[C@H](CCCNC(N)=O)NC(=O)[C@H](Cc2ccc(-c3ccccc3)cc2)NC(=O)[C@H](C(C)C)NC(=O)[C@H](Cc2cccc(C)c2)NC(=O)[C@H](CC(=O)O)NC(=O)[C@H](Cc2ccc(OCC(=O)O)cc2)NC1=O (stereo partly drawn) [Compound 3454] ({CH2CO}-[Dap(Me)]Y(Carboxymethyl)D[Phe(3-Me)]V[Bip][Cit][Orn][dL][Dab][Cha]V[Thr(3ξ)]C[Dab][Aun]-OH; thioether N-14),0.0162 µM
10,Cc1cccc(C[C@@H]2NC(=O)[C@H](CC(=O)O)NC(=O)[C@H](Cc3ccc(OCC(=O)O)cc3)NC(=O)[C@H](CC(N)=O)NC(=O)CSC[C@@H](C(=O)N[C@@H](CCN)C(=O)NCCCCCCCCCCC(=O)O)NC(=O)[C@H](C(C)O)NC(=O)[C@H](C(C)C)NC(=O)[C@H](CC3CCCCC3)NC(=O)[C@H](CCN)NC(=O)[C@@H](CC(C)C)NC(=O)[C@H](CCCN)NC(=O)[C@H](CCCNC(N)=O)NC(=O)[C@H](Cc3ccc(-c4ccccc4)cc3)NC(=O)[C@H](C(C)C)NC2=O)c1 (stereo partly drawn) [Compound 3455] ({CH2CO}-NY(Carboxymethyl)D[Phe(3-Me)]V[Bip][Cit][Orn][dL][Dab][Cha]V[Thr(3ξ)]C[Dab][Aun]-OH; thioether N-14),0.0146 µM
11,Cc1cccc(C[C@@H]2NC(=O)[C@H](CC(=O)O)NC(=O)[C@H](Cc3ccc(OCC(=O)O)cc3)NC(=O)[C@H](C(C)O)NC(=O)CSC[C@@H](C(=O)N[C@@H](CCN)C(=O)NCCCCCCCCCCC(=O)O)NC(=O)[C@H](C(C)O)NC(=O)[C@H](C(C)C)NC(=O)[C@H](CC3CCCCC3)NC(=O)[C@H](CCN)NC(=O)[C@@H](CC(C)C)NC(=O)[C@H](CCCN)NC(=O)[C@H](Cc3ccc(O)cc3)NC(=O)[C@H](Cc3ccc(-c4ccccc4)cc3)NC(=O)[C@H](Cc3ccc(O)cc3)NC2=O)c1 (stereo partly drawn) [Compound 3456] ({CH2CO}-[Thr(3ξ)]Y(Carboxymethyl)D[Phe(3-Me)]Y[Bip]Y[Orn][dL][Dab][Cha]V[Thr(3ξ)]C[Dab][Aun]-OH; thioether N-14),0.0264 µM
12,Cc1cccc(C[C@@H]2NC(=O)[C@H](CC(=O)O)NC(=O)[C@H](Cc3ccc(OCC(=O)O)cc3)NC(=O)[C@H](CCCNC(=N)N)NC(=O)CSC[C@@H](C(=O)N[C@@H](CCN)C(=O)NCCCCCCCCCCC(=O)O)NC(=O)[C@H](C(C)O)NC(=O)[C@H](C(C)C)NC(=O)[C@H](CC3CCCCC3)NC(=O)[C@H](CCN)NC(=O)[C@@H](CC(C)C)NC(=O)[C@H](CCCN)NC(=O)[C@H](Cc3ccc(O)cc3)NC(=O)[C@H](Cc3ccc(-c4ccccc4)cc3)NC(=O)[C@H](C(C)C)NC2=O)c1 (stereo partly drawn) [Compound 3457] ({CH2CO}-RY(Carboxymethyl)D[Phe(3-Me)]V[Bip]Y[Orn][dL][Dab][Cha]V[Thr(3ξ)]C[Dab][Aun]-OH; thioether N-14),0.0374 µM
13,Cc1cccc(C[C@@H]2NC(=O)[C@H](CC(=O)O)NC(=O)[C@H](Cc3ccc(OCC(=O)O)cc3)NC(=O)[C@H](C(C)O)NC(=O)CSC[C@@H](C(=O)N[C@@H](CCN)C(=O)NCCCCCCCCCCC(=O)O)NC(=O)[C@H](C(C)O)NC(=O)[C@H](C(C)C)NC(=O)[C@H](CC3CCCCC3)NC(=O)[C@H](CCN)NC(=O)[C@@H](CC(C)C)NC(=O)[C@H](CCCN)NC(=O)[C@H](CCCNC(N)=O)NC(=O)[C@H](Cc3ccc(-c4ccccc4)cc3)NC(=O)[C@H](C(C)C)NC2=O)c1 (stereo partly drawn) [Compound 3458] ({CH2CO}-[Thr(3ξ)]Y(Carboxymethyl)D[Phe(3-Me)]V[Bip][Cit][Orn][dL][Dab][Cha]V[Thr(3ξ)]C[Dab][Aun]-OH; thioether N-14),0.0184 µM
